From ChEMBL document CHEMBL4619726, “Synthesis of novel tryptanthrin derivatives as dual inhibitors of indoleamine 2,3-dioxygenase 1 and tryptophan 2,3-dioxygenase” (Bioorg Med Chem Lett, 2020)
≈ marks a conversion by molar mass, not a printed value.

Columns and labels:
[1] = target: T1, Indoleamine 2,3-dioxygenase 1 (Homo sapiens, UniProt P14902); experiment: Inhibition of IDO1 (unknown origin)
[2] = target: T1, Indoleamine 2,3-dioxygenase 1; experiment: Inhibition of IDO1 in human HeLa cells; assay type: cell-based
[3] = Solubility of compound in water; assay type: physicochemical
[4] = target: T2, Tryptophan 2,3-dioxygenase (Homo sapiens, UniProt P48775); experiment: Inhibition of recombinant human TDO expressed in Escherichia coli BL21 using L-Trp as substrate incubated for 30 mins by enzymatic assay
Target sequence in this assay (P48775 whole entry): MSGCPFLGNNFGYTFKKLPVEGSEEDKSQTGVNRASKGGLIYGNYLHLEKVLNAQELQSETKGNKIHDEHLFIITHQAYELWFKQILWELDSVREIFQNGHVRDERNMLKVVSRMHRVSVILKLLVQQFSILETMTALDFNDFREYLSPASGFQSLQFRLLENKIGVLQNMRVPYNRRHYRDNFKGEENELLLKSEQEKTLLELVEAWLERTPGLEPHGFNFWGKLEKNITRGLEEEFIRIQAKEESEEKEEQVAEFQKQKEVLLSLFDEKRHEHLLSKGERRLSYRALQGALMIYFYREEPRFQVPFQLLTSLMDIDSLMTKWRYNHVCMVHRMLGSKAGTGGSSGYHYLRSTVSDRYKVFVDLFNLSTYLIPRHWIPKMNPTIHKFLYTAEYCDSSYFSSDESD

[5] = target: T2, Tryptophan 2,3-dioxygenase; experiment: Potency index, ratio of IC50 of LM10 to IC50 of compound for inhibition of TDO (unknown origin)
Target sequence in this assay (P48775 whole entry, looked up): as the sequence (P48775 whole entry) above

[6] = target: T2, Tryptophan 2,3-dioxygenase; experiment: Potency index, ratio of IC50 of 8-fluorotryptanthrin to IC50 of compound for inhibition of TDO (unknown origin)
Target sequence in this assay (P48775 whole entry, looked up): as the sequence (P48775 whole entry) above

T1 sequence (P14902 whole entry): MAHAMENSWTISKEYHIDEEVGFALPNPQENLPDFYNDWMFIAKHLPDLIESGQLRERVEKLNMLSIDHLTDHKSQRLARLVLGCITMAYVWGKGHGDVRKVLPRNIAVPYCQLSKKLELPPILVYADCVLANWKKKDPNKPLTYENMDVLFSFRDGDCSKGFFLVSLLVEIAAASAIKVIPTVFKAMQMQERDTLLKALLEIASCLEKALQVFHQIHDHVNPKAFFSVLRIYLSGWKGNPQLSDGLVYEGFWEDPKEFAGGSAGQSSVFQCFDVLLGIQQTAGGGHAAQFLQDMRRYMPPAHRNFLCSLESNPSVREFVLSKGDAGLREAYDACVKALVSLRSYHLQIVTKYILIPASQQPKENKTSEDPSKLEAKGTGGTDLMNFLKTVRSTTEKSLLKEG

`COC(=O)C1CCN(Cc2ccc3nc4n(c(=O)c3c2)-c2ccc(F)cc2C4=O)CC1` showed an IC50 [1] of 1.2 µM, an IC50 [2] of 0.15 µM and a solubility [3] of 1.05 µg/mL (≈ 2.5 µM). It also gave an IC50 [4] of 0.99 µM.

In the case of `COC(=O)C1CCCN1Cc1ccc2nc3n(c(=O)c2c1)-c1ccc(F)cc1C3=O` (stereo not drawn), the IC50 [1] is reported as 0.46 µM, the IC50 [2] is reported as 0.7 µM and the solubility [3] is reported as 0.893 µg/mL (≈ 2.19 µM). The IC50 [4] was 0.3 µM.

Compound `O=C1c2cc(F)ccc2-n2c1nc1ccc(B(O)O)cc1c2=O` has an IC50 [1] of 1.79 µM, an IC50 [2] of 0.23 µM and a solubility [3] of 0.69 µg/mL (≈ 2.23 µM). For the same compound, the IC50 [4] was 1.21 µM.

Compound `CCOC(=O)/C=C/c1ccc2nc3n(c(=O)c2c1)-c1ccc(F)cc1C3=O` has an IC50 [1] of 0.19 µM, an IC50 [2] of 0.02 µM and a solubility [3] of 0.735 µg/mL (≈ 2.02 µM). It also gave an IC50 [4] of 0.37 µM.

Compound `O=C1c2cc(F)ccc2-n2c1nc1ccc(CN3CCC(C(=O)O)CC3)cc1c2=O` has an IC50 [1] of 0.48 µM, an IC50 [2] of 3.1 µM and a solubility [3] of 16.7 µg/mL (≈ 40.9 µM). It also gave an IC50 [4] of 0.45 µM.

In the case of `COC(=O)C1CCCN(Cc2ccc3nc4n(c(=O)c3c2)-c2ccc(F)cc2C4=O)C1` (stereo not drawn), the IC50 [1] is reported as 1.43 µM, the IC50 [2] is reported as 0.37 µM and the solubility [3] is reported as 1.09 µg/mL (≈ 2.58 µM). It also gave an IC50 [4] of 2.87 µM.

With `O=Cc1ccc2nc3n(c(=O)c2c1)-c1ccc(F)cc1C3=O` the IC50 [1] was 0.46 µM, the IC50 [2] was 0.16 µM and the solubility [3] was 0.862 µg/mL (≈ 2.93 µM). It also gave an IC50 [4] of 0.06 µM, a Ratio IC50 [5] of 193 and a Ratio IC50 [6] of 16.

In the case of `CC1(C)OB(c2ccc3nc4n(c(=O)c3c2)-c2ccc(F)cc2C4=O)OC1(C)C`, the IC50 [1] is reported as 13.1 µM, the IC50 [2] is reported as 0.75 µM and the solubility [3] is reported as 0.625 µg/mL (≈ 1.59 µM). The IC50 [4] was 6.02 µM.

In the case of `O=C1c2cc(F)ccc2-n2c1nc1ccc(CN3CCCC3C(=O)O)cc1c2=O` (stereo not drawn), the IC50 [1] is reported as 0.55 µM, the IC50 [2] is reported as 3.76 µM and the solubility [3] is reported as 15.4 µg/mL (≈ 39.1 µM). For the same compound, the IC50 [4] was 0.18 µM.

Work on `O=C(O)/C=C/c1ccc2nc3n(c(=O)c2c1)-c1ccc(F)cc1C3=O` yielded an IC50 [1] of 0.12 µM, an IC50 [2] of 0.06 µM and a solubility [3] of 1.12 µg/mL (≈ 3.34 µM). The IC50 [4] was 0.03 µM, the Ratio IC50 [5] was 386 and the Ratio IC50 [6] was 32.

`O=C1c2cc(F)ccc2-n2c1nc1ccc(Cn3ccnn3)cc1c2=O` showed an IC50 [1] of 0.78 µM, an IC50 [2] of 0.08 µM and a solubility [3] of 1.28 µg/mL (≈ 3.69 µM). The IC50 [4] was 1.13 µM.

`O=C1c2cc(F)ccc2-n2c1nc1ccc(CN3CCCC(C(=O)O)C3)cc1c2=O` (stereo not drawn) showed an IC50 [1] of 0.57 µM, an IC50 [2] of 1.84 µM and a solubility [3] of 14.3 µg/mL (≈ 35.1 µM). For the same compound, the IC50 [4] was 0.42 µM.

With `O=C1c2cc(F)ccc2-n2c1nc1ccccc1c2=O` the solubility [3] was 0.741 µg/mL (≈ 2.78 µM).
